From patent US11208387B2, “Macrocyclic broad spectrum antibiotics” (Genentech, Inc., priority 2019, dated 2021)
pIC50: −log10 of the molar value. ≈ marks a conversion by molar mass, not a printed value. Where two headings read alike, the source gives them in different places.

Key:
[1] = system: Acinetobacter baumannii ATCC 17978; assay: Serum MIC, broth micro-dilution; format: cell-based; details: Acinetobacter baumannii
Procedure, shortened: (§1)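 CLSI broth micro-dilution MIC run in 50% v/v cation-adjusted Mueller Hinton II broth plus 50% v/v mouse serum. Compounds were serially 2-fold diluted (10 concentrations) from a top concentration of 64, 4, 0.5 or 0.13 μg/mL; inoculum at final OD600 0.0005, incubated 35° C for 22 hours.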

[2] = system: Klebsiella pneumoniae ATCC 700603; assay: Serum MIC, broth micro-dilution; format: cell-based; details: Klebsiella pneumoniae, read-out: K pneumoniae 700603 Serum MIC
Procedure, shortened: as §1

[3] = system: Escherichia coli strain ATCC 25922; assay: Serum MIC, broth micro-dilution; format: cell-based; details: Escherichia coli, read-out: E. coli 25922 Serum MIC
Procedure, shortened: as §1

[4] = system: Pseudomonas aeruginosa PA01; assay: Serum MIC, broth micro-dilution; format: cell-based; details: Pseudomonas aeruginosa, read-out: P. aeruginosa 01 Serum MIC
Procedure, shortened: as §1

[5] = system: isolated liver mitochondria; assay: Mitochondrial oxygen consumption rate (OCR) assay; format: biochemical, Sprague-Dawley rats; details: isolated rat liver mitochondria, state 3 (S3) respiration, glutamate/malate; Table 3
Text: Male Sprague-Dawley rats (8-10 weeks of age) were euthanized with an overdose of carbon dioxide. The liver was rapidly excised and placed in ice-cold phosphate-buffered saline (PBS) before isolation process. Mitochondria were isolated using the MitoCheck® Mitochondrial Isolation Kit (Cayman Chemical #701010, Ann Arbor, Mich.) according to manufacturer's instructions. In brief, approximately 10-14 grams of liver tissues were finely minced using a pair of scissors, and washed repeatedly with ice-cold PBS, followed by Mito Isolation Buffer. The minced tissues were homogenized with 30 ml Mito Homogenization Buffer in 40 ml dounce homogenizer and a smooth glass grinder. The homogenate was split into two clean 30 ml polycarbonate tubes and centrifuged at 1,000×g, 4° C., for 3 minutes. The supernatant was subjected to further centrifugation at 10,000×g, 4° C., for 10 minutes. The supernatant was discarded and mitochondrial pellet was suspended in Mito Isolation Buffer using a glass stirring rod and stored on ice until use. Protein concentration of mitochondria was determined using a bicinchoninic acid protein assay kit (Thermo Scientific, Waltham, Mass.).
Oxygen consumption was monitored as essentially described by Will et al., “Analysis of mitochondrial function using phosphorescent oxygen-sensitive probes,” Nature Protocols Vol. 1(6) (2006) 2563. Briefly, isolated mitochondria (50 μg mitochondrial proteins/state 3 (S3) of mitochondrial respiration for inhibitor identification, 100 μg/S2 for uncoupler identification) were incubated with compounds in 25 μl of Measurement Buffer (MB: 250 mM sucrose, 15 mM KCl, 1 mM EGTA, 5 mM MgCl2, 30 mM K2HPO4, pH 7.4) including 1% DMSO on ice for 1 hour, then mixed with 25 μl of substrate mixture including an oxygen-sensitive phosphorescent dye (MitoXpress Xtra, Agilent, Santa Clara, Calif.), glutamate (25 mM, G1626, Sigma, St. Louis, Mo.), malate (25 mM, M6413, Sigma), ADP (3.3 mM, A2754, Sigma, only for S3 of mitochondrial respiration), Fatty acid free BSA (0.1%, A0281, Sigma), and a complex II-specific inhibitor TTFA (2 μM, T27006, Sigma for the assessment of complex I-mitochondrial respiration with glutamate/malate) in a black wall/clear bottom 384-well plate. The mixtures were covered with HS mineral oil (Agilent) using the Viaflo 384-channel pipette (Integra, Hudson, N.H.). Oxygen consumption was measured for 30 min at 30° C. using a spectrofluorimeter (FLUOstar Omega, BMG Labtech, Cary, N.C.). In S3, DMSO vehicle control and antimycin A (10 μM) were used to define 0% and 100% inhibition. In S2, DMSO vehicle and FCCP (0.5-1 μM) was used to define 0% and 100% uncoupling, respectively. Area under curve typically in a range of 0-12 min (S3) or 0-24 min (S2) was used for calculations. IC50 or UC50 (uncoupling concentration), a concentration that causes 50% of inhibition or maximal (uncoupling) activation of oxygen consumption, was used to evaluate experimental quality. Data were presented as μM (per 50 μg (S3) or 100 μg (S2) mitochondrial proteins). Compounds with IC50: <100 μM (S3) and/or UC50: <200 μM (S2) were considered as high-risk on mitochondrial toxicity. Compounds with 25-50% changes in inhibition and/or uncoupling were categorized as medium-risk, since compounds with >25% changes are considered as responders.
Toxicity associated with mitochondrial dysfunction has presented a problem for promising potential antibiotics as we as other types of therapeutics. The mitochondrial oxygen consumption rate (OCR) assay is considered a reliable indicator of potential internal organ toxicity issues that may occur with powerful antibiotics. The carboxylate compounds of the invention show unexpected lower toxicity than prior art “glycine nitrile” arylomycin analogs (see, e.g., WO 2018/149419) in the mitochondrial oxygen consumption rate (OCR) assay.

[6] = ATCC17978, 50% v/v mouse serum in Mueller Hinton II cation adjusted Broth, 35° C., 22 hours, Table 4, read-out: A. baumanii 17978 Serum MIC
[7] = ATCC17978, 50% v/v mouse serum in Mueller Hinton II cation adjusted Broth, 35° C., 22 hours, Table 5, read-out: Acinetobacter baumanii 17978 Serum MIC
[8] = ATCC700603, 50% v/v mouse serum in Mueller Hinton II cation adjusted Broth, 35° C., 22 hours, Table 4
[9] = ATCC25922, 50% v/v mouse serum in Mueller Hinton II cation adjusted Broth, 35° C., 22 hours, Table 4
[10] = PA01, 50% v/v mouse serum in Mueller Hinton II cation adjusted Broth, 35° C., 22 hours, Table 4

SMILES | MIC [1, 6] | MIC [1, 7] | MIC [2, 8] | MIC [3, 9] | MIC [4, 10] | pIC50 [5] | MIC ([1]; ATCC17978, 22 h, read-out: A. baumanii 17978 Serum MIC) | MIC ([1]; ATCC17978, 22 h, read-out: Acinetobacter baumanii 17978 Serum MIC) | MIC ([2]; ATCC700603, 22 h) | MIC ([3]; ATCC25922, 22 h) | MIC ([4]; PA01, 22 h)
C[C@@H]1NC(=O)[C@@H](N(C)C(=O)[C@H](CCN)NC(=O)c2c(N)nc(-c3ccc(C(C)(C)C)cc3)nc2C(F)F)c2cc(OC[C@H](O)CN)c(O)c(c2)-c2cc(ccc2OC[C@H](O)CN)C[C@@H](C(=O)O)NC1=O [Example 32, (8S,11S,14S)-18-hydroxy-11-methyl-14-[methyl-[(2S)-4-amino-2-[[2-(4-tert-butylphenyl)-4-amino-6-difluoro-methyl-pyrimidine-5-carbonyl]amino]-butanoyl]amino]-10,13-dioxo-3,17-bis[(2R)-3-amino-2-hydroxy-propoxy]-9,12-diazatricyclo-[13.3.1.12,6]icosa-1(18),2(20),3,5,15(19), 16-hexaene-8-carboxylic acid] | 4 µM (≈ 3.92 µg/mL) | 4 µM (≈ 3.92 µg/mL) | 0.25 µM (≈ 0.245 µg/mL) | 0.25 µM (≈ 0.245 µg/mL) | 16 µM (≈ 15.7 µg/mL) | < 4.00 |  |  |  |  | 
Cc1nc(-c2ccc(C(C)(C)C)cc2)ncc1C(=O)N[C@@H](CNS(N)(=O)=O)C(=O)N(C)[C@@H]1C(=O)N[C@@H](C)C(=O)N[C@H](C(=O)O)Cc2ccc(OC[C@H](O)CN)c(c2)-c2cc1cc(OC[C@H](O)CN)c2O [Example 8, (8S,11S,14S)-18-hydroxy-11-methyl-14-[methyl-[(2S)-2-[[2-(4-tert-butyl-phenyl)-4-methyl-pyrimidine-5-carbonyl]amino]-3-(sulfamoylamino)-propanoyl]amino]-10,13-dioxo-3,17-bis[(2R)-3-amino-2-hydroxy-propoxy]-9,12-diazatricyclo-[13.3.1.12,6]icosa-1(18),2(20),3,5,15(19), 16-hexaene-8-carboxylic acid] | 16 µM (≈ 15.9 µg/mL) | 16 µM (≈ 15.9 µg/mL) | 0.5 µM (≈ 0.497 µg/mL) | 0.38 µM (≈ 0.377 µg/mL) | 7 µM (≈ 6.95 µg/mL) | 4.55 |  |  |  |  | 
Cc1nc(-c2ccc(C3(C)CC3)cc2)ncc1C(=O)N[C@@H](CCN)C(=O)N(C)[C@@H]1C(=O)N[C@@H](C)C(=O)N[C@H](C(=O)O)Cc2ccc(OC[C@H](O)CN)c(c2)-c2cc1cc(OC[C@H](O)CN)c2O [Example 28, (8S,11S,14S)-18-hydroxy-11-methyl-14-[methyl-[(2S)-4-amino-2-[[4-methyl-2-[4-(1-methylcyclo-propyl)phenyl]-pyrimidine-5-carbonyl]amino]-butanoyl]amino]-10,13-dioxo-3,17-bis[(2R)-3-amino-2-hydroxy-propoxy]-9,12-diazatricyclo-[13.3.1.12,6]icosa-1(18),2(20),3,5,15(19), 16-hexaene-8-carboxylic acid] | 11 µM (≈ 10.2 µg/mL) | 11 µM (≈ 10.2 µg/mL) | 0.17 µM (≈ 0.157 µg/mL) | 0.21 µM (≈ 0.194 µg/mL) | 43 µM (≈ 39.8 µg/mL) | < 3.60 |  |  |  |  | 
Cc1nc(-c2ccc(OCCC(C)(C)C)cc2)nc(N)c1C(=O)N[C@@H](CCN)C(=O)N(C)[C@@H]1C(=O)N[C@@H](C)C(=O)N[C@H](C(=O)O)Cc2ccc(OC[C@H](O)CN)c(c2)-c2cc1cc(OC[C@H](O)CN)c2O [Example 18, (8S,11S,14S)-18-hydroxy-11-methyl-14-[methyl-[(2S)-4-amino-2-[[4-amino-2-[4-(3,3-dimethyl-butoxy)phenyl]-6-methyl-pyrimidine-5-carbonyl]amino]-butanoyl]amino]-10,13-dioxo-3,17-bis[(2R)-3-amino-2-hydroxy-propoxy]-9,12-diazatricyclo-[13.3.1.12,6]icosa-1(18),2(20),3,5,15(19), 16-hexaene-8-carboxylic acid] |  |  |  |  |  | 3.92 | 8 µM (≈ 7.9 µg/mL) | 8 µM (≈ 7.9 µg/mL) | 0.25 µM (≈ 0.247 µg/mL) | 0.25 µM (≈ 0.247 µg/mL) | 4 µM (≈ 3.95 µg/mL)
Cc1nc(-c2ccc(C(C)(C)C)cc2)nc(N)c1C(=O)N[C@@H](CCN)C(=O)N(C)[C@@H]1C(=O)N[C@@H](C)C(=O)N[C@H](C(=O)O)Cc2ccc(OC[C@H](O)CN)c(c2)-c2cc1cc(OC[C@H](O)CN)c2O [Example 24, (8S,11S,14S)-18-hydroxy-11-methyl-14-[methyl-[(2S)-4-amino-2-[[4-amino-2-(4-tert-butylphenyl)-6-methyl-pyrimidine-5-carbonyl]amino]-butanoyl]amino]-10,13-dioxo-3,17-bis[(2R)-3-amino-2-hydroxy-propoxy]-9,12-diazatricyclo-[13.3.1.12,6]icosa-1(18),2(20),3,5,15(19), 16-hexaene-8-carboxylic acid] | 16 µM (≈ 15.1 µg/mL) | 16 µM (≈ 15.1 µg/mL) | 0.25 µM (≈ 0.236 µg/mL) | 0.5 µM (≈ 0.472 µg/mL) | 16 µM (≈ 15.1 µg/mL) | < 3.70 |  |  |  |  | 
Cc1nc(-c2ccc(OCCC(C)(C)C)cc2)ncc1C(=O)N[C@@H](CCN)C(=O)N(C)[C@@H]1C(=O)N[C@@H](C)C(=O)N[C@H](C(=O)O)Cc2ccc(OC[C@H](O)CN)c(c2)-c2cc1cc(OC[C@H](O)CN)c2O [Example 27, (8S,11S,14S)-18-hydroxy-11-methyl-14-[methyl-[(2S)-4-amino-2-[[2-[4-(3,3-dimethylbutoxy)-phenyl]-4-methyl-pyrimidine-5-carbonyl]amino]-butanoyl]amino]-10,13-dioxo-3,17-bis[(2R)-3-amino-2-hydroxy-propoxy]-9,12-diazatricyclo-[13.3.1.12,6]icosa-1(18),2(20),3,5,15(19), 16-hexaene-8-carboxylic acid] | 12 µM (≈ 11.7 µg/mL) | 12 µM (≈ 11.7 µg/mL) | 0.25 µM (≈ 0.243 µg/mL) | 0.25 µM (≈ 0.243 µg/mL) | 8 µM (≈ 7.78 µg/mL) | 4.70 |  |  |  |  | 
Cc1nc(-c2ccc(C(C)(C)C)cc2)nc(N)c1C(=O)N[C@@H](CNS(N)(=O)=O)C(=O)N(C)[C@@H]1C(=O)N[C@@H](C)C(=O)N[C@H](C(=O)O)Cc2ccc(OC[C@H](O)CN)c(c2)-c2cc1cc(OC[C@@H](O)CN)c2O [Example 50, (8S,11S,14S)-14-[[(2S)-2-[[4-amino-2-(4-tert-butylphenyl)-6-methyl-pyrimidine-5-carbonyl]amino]-3-(sulfamoylamino)-propanoyl]-methyl-amino]-3-[(2R)-3-amino-2-hydroxy-propoxy]-17-[(2S)-3-amino-2-hydroxy-propoxy]-18-hydroxy-11-methyl-10,13-dioxo-9,12-diazatri-cyclo[13.3.1.12,6]icosa-1(19),2(20),3,5,15,17-hexaene-8-carboxylic acid] | 8 µM (≈ 8.06 µg/mL) | 8 µM (≈ 8.06 µg/mL) | 0.75 µM (≈ 0.756 µg/mL) | 0.75 µM (≈ 0.756 µg/mL) | 4 µM (≈ 4.03 µg/mL) | < 4.00 |  |  |  |  | 
